From ChEMBL document CHEMBL1201862, “PubChem BioAssay data set” (2004)
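Values below derive from 48-hour exposures of cells grown in 96-well plates, with endpoints linearly interpolated between the two concentrations bracketing the appropriate inhibition level. At the GI50, growth is halved.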 The source made the active and inactive calls. Rule as the data show it: active = GI50 up to about 1.1 µM and inactive = higher.

Key:
Test in all cases: NCI tumour cell line growth inhibition, 48 h
LOX IMVI = test system: LOX IMVI
MDA-MB-435 = test system: MDA-MB-435
M14 = test system: M14
HOP-92 = test system: HOP-92
HL-60 = test system: HL-60
BT-549 = test system: BT-549
SF-268 = test system: SF-268
HT-29 = test system: HT-29
SF-539 = test system: SF-539
MDA-N = test system: MDA-N
SN12C = test system: SN12C
EKVX = test system: EKVX
SNB-75 = test system: SNB-75
SNB-19 = test system: SNB-19
MDA-MB-231 = test system: MDA-MB-231
UACC-257 = test system: UACC-257
SF-295 = test system: SF-295
NCI-H23 = test system: NCI-H23
Malme-3M = test system: Malme-3M

Measured: GI50

CC(=O)/C(=C/c1ccccc1F)C(=O)c1ccccc1
inactive: LOX IMVI 17.8 µM | MDA-MB-435 37.9 µM | M14 56 µM | HOP-92 91.8 µM | HL-60 21.4 µM | BT-549 48.2 µM | SF-268 33.2 µM | HT-29 33.1 µM | SF-539 > 100 µM | MDA-N 37.9 µM | SN12C 37.2 µM | EKVX 67.1 µM | SNB-75 38.9 µM | SNB-19 60.7 µM | MDA-MB-231 26.1 µM | UACC-257 25.9 µM | SF-295 43.8 µM | NCI-H23 32 µM

CC1=C(C(=O)NCC(C)O)CC(C(=O)NCC(C)O)=C(C)N1 (stereo not drawn)
inactive: LOX IMVI > 100 µM | MDA-MB-435 > 100 µM | M14 > 100 µM | HOP-92 > 100 µM | HL-60 > 100 µM | BT-549 > 100 µM | SF-268 > 100 µM | HT-29 > 100 µM | SF-539 > 100 µM | MDA-N > 100 µM | SN12C > 100 µM | EKVX > 100 µM | SNB-75 72.9 µM | SNB-19 > 100 µM | MDA-MB-231 46.5 µM | UACC-257 > 100 µM | SF-295 > 100 µM | NCI-H23 > 100 µM

COc1ccc(/C=C/C2=NN(c3cccc(S(=O)(=O)O)c3)C3(C2)SCC(=O)N3c2nc3ccccc3s2)cc1 (stereo not drawn)
inactive: LOX IMVI 33.1 µM | MDA-MB-435 62.4 µM | M14 > 100 µM | HOP-92 68.1 µM | HL-60 > 100 µM | BT-549 56.1 µM | SF-268 98.6 µM | HT-29 > 100 µM | SF-539 33.2 µM | MDA-N > 100 µM | SN12C > 100 µM | Malme-3M > 100 µM | EKVX 64.7 µM | SNB-75 > 100 µM | SNB-19 97.1 µM | MDA-MB-231 67 µM | UACC-257 83.8 µM | NCI-H23 40.1 µM

COc1ccc(Cc2cc(Cc3ccc(OC)cc3)cc(Cc3ccc(OC)cc3)c2)cc1
inactive: LOX IMVI > 100 µM | MDA-MB-435 13.6 µM | M14 > 100 µM | HOP-92 > 100 µM | HL-60 > 100 µM | BT-549 > 100 µM | SF-268 > 100 µM | HT-29 > 100 µM | SF-539 > 100 µM | MDA-N 6.58 µM | SN12C > 100 µM | Malme-3M 56.8 µM | EKVX > 100 µM | SNB-75 > 100 µM | SNB-19 > 100 µM | MDA-MB-231 > 100 µM | UACC-257 > 100 µM | SF-295 > 100 µM

CCOC1Oc2ccccc2-c2nc(SC)ncc21 (stereo not drawn)
inactive: LOX IMVI 80.7 µM | MDA-MB-435 > 100 µM | M14 > 100 µM | HOP-92 29.2 µM | HL-60 45.9 µM | BT-549 78 µM | SF-268 > 100 µM | HT-29 52.4 µM | SF-539 > 100 µM | MDA-N 64.1 µM | SN12C 89.7 µM | EKVX 36 µM | SNB-75 > 100 µM | SNB-19 > 100 µM | MDA-MB-231 62.8 µM | UACC-257 > 100 µM | SF-295 > 100 µM | NCI-H23 > 100 µM

O=C(O)CCc1nc2c(n1Cc1ccccc1)C(=O)c1ccccc1C2=O
inactive: LOX IMVI 27.2 µM | MDA-MB-435 19.2 µM | M14 21.4 µM | HOP-92 5.45 µM | HL-60 64 µM | BT-549 > 100 µM | SF-268 60.5 µM | HT-29 42 µM | SF-539 28.1 µM | MDA-N 21.5 µM | SN12C 44.5 µM | EKVX 78.2 µM | SNB-75 > 100 µM | SNB-19 > 100 µM | MDA-MB-231 33.5 µM | UACC-257 33.7 µM | SF-295 59.6 µM | NCI-H23 30.3 µM
